# Earlier results in patent publication US20050013858A1, “Oral pharmaceutical compositions containing terbinafine” (priority 2001, published 2005).
# Legend:
# CYP2D6 = CYP2D6 (Homo sapiens, UniProt P10635)
# [1] = steady state, in comparison to the single dose
# Chain of CYP2D6 (P10635 whole entry): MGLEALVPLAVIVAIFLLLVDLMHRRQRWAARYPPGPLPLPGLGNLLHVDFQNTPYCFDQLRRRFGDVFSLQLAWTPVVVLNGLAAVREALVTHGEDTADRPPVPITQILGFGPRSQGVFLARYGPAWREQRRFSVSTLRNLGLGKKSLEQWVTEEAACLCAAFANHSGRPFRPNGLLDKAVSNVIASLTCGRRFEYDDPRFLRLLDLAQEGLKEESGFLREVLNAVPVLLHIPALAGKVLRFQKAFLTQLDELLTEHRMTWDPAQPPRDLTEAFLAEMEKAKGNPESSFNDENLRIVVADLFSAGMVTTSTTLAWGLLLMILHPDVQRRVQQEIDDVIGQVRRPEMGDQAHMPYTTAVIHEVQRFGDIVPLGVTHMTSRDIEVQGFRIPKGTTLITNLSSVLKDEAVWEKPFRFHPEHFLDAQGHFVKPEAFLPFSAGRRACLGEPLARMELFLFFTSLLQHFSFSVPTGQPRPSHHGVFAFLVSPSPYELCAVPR
smiles,measurement,setting,value
CN(C/C=C/C#CC(C)(C)C)Cc1cccc2ccccc12 [terbinafine],inhibition of CYP2D6,CYP2D6,potent inhibitor
same,increase in AUC,administered with a fat-rich meal,42%
same,effective half-life,in vivo,ca. 36 hours
same,reduction of clearance,patients with renal impairment (creatinine clearance ≤50 ml/min) or hepatic cirrhosis,approximately 50%
same,area under the curve over 24 hours (AUC),single 250 mg terbinafine dose,about 4.76 microgram.hour/millilitre
same,factor of AUC increase in steady state versus single dose,[1],2.5
same,increase of Cmax in steady state versus single dose,[1],25%
